Experimental data taken from ChEMBL document CHEMBL4261482, “Development of small molecular compounds targeting cancer stem cells” (Medchemcomm, 2017).
Blank lines part the entries; values can stand above or below the compound they belong to.

Legend:
[1] = test system: OV-90; test: Cytotoxicity against human OV90 cells assessed as decrease in cell viability after 72 hrs by CCK8 assay; format: functional, cell-based; settings: OV-90, 72 h
[2] = test system: KG-1; test: Cytotoxicity against human KG1 cells assessed as decrease in cell viability after 48 hrs by MTT assay; format: functional, cell-based; settings: KG-1, 48 h
[3] = test system: SW626; test: Cytotoxicity against human SW626 cells assessed as decrease in cell viability after 72 hrs by CCK8 assay; format: functional, cell-based; settings: SW626, 72 h
[4] = test system: PA-1; test: Cytotoxicity against human PA1 cells assessed as decrease in cell viability after 72 hrs by CCK8 assay; format: functional, cell-based; settings: PA-1, 72 h
[5] = test system: HCT-116; test: Cytotoxicity against human HCT116 cells assessed as decrease in cell viability after 72 hrs by CCK8 assay; format: functional, cell-based; settings: HCT-116, 72 h
[6] = test system: A549; test: Antitumor activity against human A549 cells xenografted in BALB/cSLC-nu/nu mouse assessed as tumor growth inhibition at 5 mg/kg, iv qd administered for 14 days measured on day 15 relative to control; format: functional; settings: read-out: TGI
[7] = test system: Lu-99 cell line; test: Antitumor activity against human LU99 cells xenografted in BALB/cSLC-nu/nu mouse assessed as tumor growth inhibition at 5 mg/kg, iv qd administered for 14 days measured on day 15 relative to control; format: functional; settings: Lu-99, iv, read-out: TGI
[8] = test system: MKN-1; test: Cytotoxicity against human MKN1 cells assessed as decrease in cell viability after 72 hrs by CCK8 assay; format: functional, cell-based; settings: MKN-1, 72 h
[9] = test system: MIA PaCa-2; test: Cytotoxicity against human MIAPaCa2 cells assessed as decrease in cell viability after 72 hrs by CCK8 assay; format: functional, cell-based; settings: MIA PaCa-2, 72 h
[10] = Cytotoxicity against human VMRC-RCW cells assessed as decrease in cell viability after 72 hrs by MTT assay; format: functional, cell-based
[11] = Cytotoxicity against human KOCL48 cells assessed as decrease in cell viability after 48 hrs by MTT assay; format: functional, cell-based
[12] = test system: THP-1; test: Cytotoxicity against human THP1 cells assessed as decrease in cell viability after 48 hrs by MTT assay; format: functional, cell-based; settings: THP-1, 48 h
[13] = Cytotoxicity against human OVSAHO cells assessed as decrease in cell viability after 72 hrs by CCK8 assay; format: functional, cell-based
[14] = test system: CAKI-1; test: Cytotoxicity against human Caki1 cells assessed as decrease in cell viability after 72 hrs by MTT assay; format: functional, cell-based; settings: CAKI-1, 72 h
[15] = test system: CWR22R; test: Cytotoxicity against human 22Rv1 cells assessed as decrease in cell viability after 72 hrs by CCK8 assay; format: functional, cell-based; settings: 22Rv1, 72 h
[16] = test system: MKN-45; test: Cytotoxicity against human MKN45 cells assessed as decrease in cell viability after 72 hrs by CCK8 assay; format: functional, cell-based; settings: MKN-45, 72 h
[17] = test system: Daudi; test: Cytotoxicity against human Daudi cells assessed as decrease in cell viability after 72 hrs by CCK8 assay; format: functional, cell-based
[18] = test system: ML-2; test: Cytotoxicity against human ML2 cells assessed as decrease in cell viability after 48 hrs by MTT assay; format: functional, cell-based; settings: ML-2, 48 h
[19] = test system: KG-1a; test: Cytotoxicity against human KG1a cells assessed as decrease in cell viability after 48 hrs by MTT assay; format: functional, cell-based
[20] = test system: Caov-3 cell line; test: Cytotoxicity against human Caov3 cells assessed as decrease in cell viability after 72 hrs by CCK8 assay; format: functional, cell-based; settings: Caov-3, 72 h
[21] = test system: MDA-MB-231; test: Cytotoxicity against human MDA-MB-231 cells assessed as decrease in cell viability after 72 hrs by CCK8 assay; format: functional, cell-based; settings: MDA-MB-231, 72 h
[22] = test system: A2780; test: Cytotoxicity against human A2780 cells assessed as decrease in cell viability after 72 hrs by CCK8 assay; format: functional, cell-based; settings: A2780, 72 h
[23] = test system: 769-P; test: Cytotoxicity against human 769-P cells assessed as decrease in cell viability after 72 hrs by MTT assay; format: functional, cell-based
[24] = test system: MOLM-13; test: Cytotoxicity against human MOLM13 cells assessed as decrease in cell viability after 48 hrs by MTT assay; format: functional, cell-based; settings: MOLM-13, 48 h
[25] = test system: HepG2; test: Cytotoxicity against human HepG2 cells assessed as decrease in cell viability after 72 hrs by CCK8 assay; format: functional, cell-based; settings: HepG2, 72 h
[26] = test system: U-937; test: Cytotoxicity against human U937 cells assessed as decrease in cell viability after 48 hrs by MTT assay; format: functional, cell-based; settings: U-937, 48 h
[27] = test system: A549; test: Cytotoxicity against human A549 cells assessed as decrease in cell viability after 72 hrs by CCK8 assay; format: functional, cell-based; settings: A549, 72 h
[28] = test system: 786-0; test: Cytotoxicity against human 786-O cells assessed as decrease in cell viability after 72 hrs by MTT assay; format: functional, cell-based; settings: 786-0, 72 h
[29] = test system: RMG-I; test: Cytotoxicity against human RMG-1 cells assessed as decrease in cell viability after 72 hrs by CCK8 assay; format: functional, cell-based
[30] = test system: DU-4475; test: Cytotoxicity against human DU4475 cells assessed as decrease in cell viability after 72 hrs by CCK8 assay; format: functional, cell-based; settings: DU-4475, 72 h
[31] = test system: CAKI-2; test: Cytotoxicity against human Caki2 cells assessed as decrease in cell viability after 72 hrs by MTT assay; format: functional, cell-based; settings: CAKI-2, 72 h
[32] = test system: Lu-99 cell line; test: Cytotoxicity against human LU99 cells assessed as decrease in cell viability after 72 hrs by CCK8 assay; format: functional, cell-based; settings: Lu-99, 72 h
[33] = Cytotoxicity against human OVTOKO cells assessed as decrease in cell viability after 72 hrs by CCK8 assay; format: functional, cell-based
[34] = test system: T47D; test: Cytotoxicity against human T47D cells assessed as decrease in cell viability after 72 hrs by CCK8 assay; format: functional, cell-based
[35] = test system: K562; test: Cytotoxicity against human K562 cells assessed as decrease in cell viability after 48 hrs by MTT assay; format: functional, cell-based; settings: K562, 48 h
[36] = test system: MV4-11; test: Cytotoxicity against human MV4-11 cells assessed as decrease in cell viability after 48 hrs by MTT assay; format: functional, cell-based; settings: MV4-11, 48 h
[37] = Cytotoxicity against human ES2 cells assessed as decrease in cell viability after 72 hrs by CCK8 assay; format: functional, cell-based; settings: ES-2, 72 h
[38] = test system: SK-OV-3; test: Cytotoxicity against human SKOV3 cells assessed as decrease in cell viability after 72 hrs by CCK8 assay; format: functional, cell-based; settings: SK-OV-3, 72 h
[39] = test system: UMUC3; test: Cytotoxicity against human UM-UC-3 cells assessed as decrease in cell viability after 72 hrs by CCK8 assay; format: functional, cell-based; settings: UMUC3, 72 h
[40] = test system: OVCAR-3; test: Cytotoxicity against human OVCAR3 cells assessed as decrease in cell viability after 72 hrs by CCK8 assay; format: functional, cell-based; settings: OVCAR-3, 72 h
[41] = test system: A549; test: Antitumor activity against human A549 cells xenografted in BALB/cSLC-nu/nu mouse assessed as tumor growth inhibition at 10 mg/kg, iv qd administered for 14 days measured on day 15 relative to control; format: functional; settings: read-out: TGI
[42] = test system: NCI-H2171; test: Cytotoxicity against human NCI-H2171 cells assessed as decrease in cell viability after 72 hrs by MTT assay; format: functional, cell-based; settings: NCI-H2171, 72 h
[43] = test system: NCI-H69; test: Cytotoxicity against human H69 cells assessed as decrease in cell viability after 72 hrs by MTT assay; format: functional, cell-based; settings: NCI-H69, 72 h
[44] = test system: CWR22R; test: Antiproliferative activity against human 22Rv1 cells; format: functional, cell-based
[45] = test system: DU-4475; test: Antiproliferative activity against human DU4475 cells; format: functional, cell-based
[46] = test system: SBC-5; test: Cytotoxicity against human SBC5 cells assessed as decrease in cell viability after 72 hrs by MTT assay; format: functional, cell-based; settings: SBC-5, 72 h
[47] = test system: A549; test: Antitumor activity against human A549 cells xenografted in BALB/cSLC-nu/nu mouse assessed as tumor growth inhibition at 10 mg/kg administered through oral gavage as qd for 14 days measured on day 15 relative to control; format: functional; settings: read-out: TGI
[48] = test system: NCI-H146; test: Cytotoxicity against human NCI-H146 cells assessed as decrease in cell viability after 72 hrs by MTT assay; format: functional, cell-based; settings: NCI-H146, 72 h
[49] = test system: NCI-H446; test: Cytotoxicity against human NCI-H446 cells assessed as decrease in cell viability after 72 hrs by MTT assay; format: functional, cell-based; settings: NCI-H446, 72 h
[50] = test system: SBC-3; test: Cytotoxicity against human SBC3 cells assessed as decrease in cell viability after 72 hrs by MTT assay; format: functional, cell-based; settings: SBC-3, 72 h
[51] = test system: A549; test: Antiproliferative activity against human A549 cells; format: functional, cell-based
[52] = test system: DMS-273; test: Cytotoxicity against human DMS273 cells assessed as decrease in cell viability after 72 hrs by MTT assay; format: functional, cell-based; settings: DMS-273, 72 h
[53] = test system: T47D; test: Antiproliferative activity against human T47D cells; format: functional, cell-based
[54] = Antitumor activity against human gastric cancer cells xenografted in NOD/SCID mouse assessed as tumor growth inhibition at 15 mg/kg, iv administered once in every 2 days for 2 weeks measured on day 15 relative to control; format: functional; settings: read-out: TGI
[55] = test system: NCI-H82; test: Cytotoxicity against human H82 cells assessed as decrease in cell viability after 72 hrs by MTT assay; format: functional, cell-based; settings: NCI-H82, 72 h
[56] = test system: BGC-823; test: Antiproliferative activity against human BGC823 cells after 24 to 96 hrs by CCK8 assay; format: functional, cell-based
[57] = test system: SGC-7901; test: Antiproliferative activity against human SGC7901 cells after 24 to 96 hrs by CCK8 assay; format: functional, cell-based
[58] = test system: DMS-114; test: Cytotoxicity against human DMS114 cells assessed as decrease in cell viability after 72 hrs by MTT assay; format: functional, cell-based; settings: DMS-114, 72 h
[59] = Cytotoxicity against human H69AR cells assessed as decrease in cell viability after 72 hrs by MTT assay; format: functional, cell-based
[60] = test system: NCI-H524; test: Cytotoxicity against human NCI-H524 cells assessed as decrease in cell viability after 72 hrs by MTT assay; format: functional, cell-based; settings: NCI-H524, 72 h

Structure (SMILES): Cc1cc(O)c(-c2ccc([C@@H](C)CN)cc2)c2c1[nH]c(=O)c1sccc12
IC50 [1]: 8.8 nM
IC50 [2]: 48.7 nM
IC50 [3]: 9.4 nM
IC50 [4]: 5 nM
IC50 [5]: 4.8 nM
inhibition in vivo at 5 mg/kg [6]: 65%
inhibition in vivo at 5 mg/kg [7]: 104%
IC50 [8]: 4.6 nM
IC50 [9]: 5.2 nM
IC50 [10]: 19.9 nM
IC50 [11]: 7.1 nM
IC50 [12]: 23.5 nM
IC50 [13]: 13 nM
IC50 [14]: 27.8 nM
IC50 [15]: 8 nM
IC50 [16]: 6.1 nM
IC50 [17]: 3.7 nM
IC50 [18]: 17.9 nM
IC50 [19]: 26.2 nM
IC50 [20]: 5.1 nM
IC50 [21]: 14 nM
IC50 [22]: 10 nM
IC50 [23]: 20.7 nM
IC50 [24]: 9 nM
IC50 [25]: 8.5 nM
IC50 [26]: 19.2 nM
IC50 [27]: 6.5 nM
IC50 [28]: 44.1 nM
IC50 [29]: 15 nM
IC50 [30]: 6.4 nM
IC50 [31]: 20.1 nM
IC50 [32]: 1.5 nM
IC50 [33]: 46 nM
IC50 [34]: 8.4 nM
IC50 [35]: 36.8 nM
IC50 [36]: 10.7 nM
IC50 [37]: 5.6 nM
IC50 [38]: 6.3 nM
IC50 [39]: 5.7 nM
IC50 [40]: 12 nM

IC50 [51]: 6.7 nM
IC50 [53]: 4.3 nM
IC50 [56]: 25 nM
IC50 [57]: 25 nM
Structure (SMILES): CC(=O)c1cnc2ccc(-c3cc(Cl)c(O)c(Cl)c3)nc2c1N[C@H]1CC[C@H](CN(C)C)CC1
inhibition in vivo at 10 mg/kg [41]: 108%
IC50 [2]: 16.9 nM
IC50 [42]: 4.7 nM
IC50 [43]: 0.8 nM
IC50 [44]: 6 nM
IC50 [45]: 2.3 nM
IC50 [10]: 25.5 nM
IC50 [46]: 2.8 nM
IC50 [11]: 16.9 nM
inhibition in vivo at 10 mg/kg [47]: 124%
IC50 [48]: 7.9 nM
IC50 [49]: 6.2 nM
IC50 [12]: 15.6 nM
IC50 [14]: 12.4 nM
IC50 [50]: 4.3 nM
IC50 [18]: 33.8 nM
IC50 [19]: 26.4 nM
IC50 [23]: 20.1 nM
IC50 [52]: 8.4 nM
IC50 [24]: 17.5 nM
inhibition in vivo at 15 mg/kg [54]: 106 to 112%
IC50 [26]: 69.8 nM
IC50 [28]: 23.9 nM
IC50 [55]: 1.7 nM
IC50 [58]: 2.1 nM
IC50 [31]: 38.7 nM
IC50 [35]: 33 nM
IC50 [59]: 4.4 nM
IC50 [36]: 7.9 nM
IC50 [60]: 1.9 nM
